Experimental findings from article PMC12491701, “Discovery of an APP-selective BACE1 inhibitor for Alzheimer's disease” (Neurotherapeutics, 2025) are described below.

In one experiment the target is BACE1 (Homo sapiens, UniProt P56817). As to the kind of experiment: P5-P5′ BACE1 inhibition assay. Conditions: cell-free; read-out: BACE1 IC50 (P5-P5′ assay; BACE1-APP). In kind it is biochemical.
In another experiment the target is T1, BACE1 cleavage of NRG1 (Homo sapiens, UniProt P56817).
T1 construct: with or without full-length wild-type BACE1; expressed in transfected cells; host or cells: HEK293
T1 sequence (P56817 46-501): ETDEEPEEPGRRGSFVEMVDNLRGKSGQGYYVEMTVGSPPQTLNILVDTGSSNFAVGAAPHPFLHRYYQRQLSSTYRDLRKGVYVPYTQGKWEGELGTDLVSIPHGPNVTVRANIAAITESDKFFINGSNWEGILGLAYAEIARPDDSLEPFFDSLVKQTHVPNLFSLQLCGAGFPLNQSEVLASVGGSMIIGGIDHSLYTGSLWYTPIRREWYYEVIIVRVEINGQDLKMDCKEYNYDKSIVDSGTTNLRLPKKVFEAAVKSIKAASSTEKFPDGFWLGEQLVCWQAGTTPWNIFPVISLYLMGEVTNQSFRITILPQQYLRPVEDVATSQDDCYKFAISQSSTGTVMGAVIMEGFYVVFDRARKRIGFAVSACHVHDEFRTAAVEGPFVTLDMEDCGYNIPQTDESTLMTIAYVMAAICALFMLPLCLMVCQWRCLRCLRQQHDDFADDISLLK
As to the kind of experiment: SEAP-NRG assay. The conditions noted are these: SEAP-NRG1, HEK293. The class given is cell-based.

A further experiment has as its target T2, BACE1 cleavage of PSGL1 (Homo sapiens, UniProt P56817).
T2 construct: with or without full-length wild-type BACE1; expressed in transfected cells; host or cells: HEK293
As to the kind of experiment: PSGL1 assay (SEAP-PSGL1). In kind it is cell-based. The conditions noted are these: SEAP-PSGL1, HEK293.

In a further experiment the target is T3, cathepsin D (CatD) (Homo sapiens, UniProt P07339).
T3 construct: purchased R&D Systems 1014-AS
T3 sequence (P07339 65-412): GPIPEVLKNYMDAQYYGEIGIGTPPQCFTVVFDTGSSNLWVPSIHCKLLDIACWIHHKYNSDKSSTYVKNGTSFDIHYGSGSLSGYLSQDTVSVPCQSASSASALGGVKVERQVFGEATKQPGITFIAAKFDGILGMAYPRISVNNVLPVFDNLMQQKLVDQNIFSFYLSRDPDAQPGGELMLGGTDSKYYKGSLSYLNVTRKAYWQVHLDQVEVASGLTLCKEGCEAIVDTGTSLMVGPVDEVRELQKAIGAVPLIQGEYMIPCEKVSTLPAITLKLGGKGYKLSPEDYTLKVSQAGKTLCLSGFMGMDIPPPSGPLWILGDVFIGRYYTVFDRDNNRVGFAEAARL
In words: Cathepsin D activity assay. In kind it is biochemical. The conditions noted are these: in words. The method, then: The effects of candidate ASBIs on cathepsin D (CatD) activity was assessed using the R&D Systems CatD activity assay kit (Catalog #: 1014-AS and ES001) according to the manufacturer's instructions. For the assay, 4 μL of assay buffer was added to each well, followed by 2 μL of CatD diluted in assay buffer to 5 ng/uL. Then, 2 μL of inhibitor, at concentrations along an 11 pt. two-fold dilution series starting at 50 μM, were added to appropriated wells and incubated for 30 min at room temperature. For all dilutions of inhibitor, drug stock solutions of 10 mM in DMSO were diluted to 50 μM in water; subsequent dilutions were in 2.5 % DMSO. Afterwards, 2 μL of fluorogenic CatD substrate, diluted to 50 μM in assay buffer, were added to each well, after which the signal generated was read every 30 min at 25 °C for 1hr.

For experiment [1], the system named is CHO-7W cells expressing wildtype human APP. In words: sAPPβ and Aβ1-42 production in CHO-7W cells (AlphaLISA). The class given is cell-based, Chinese hamster. The conditions noted are these: 1 μM, in words. The procedure:
Culture Media was collected and frozen. Media was assayed using an AlphaLISA for Aβ1-42 (Perkin Elmer catalog # AL276C), sAPPα (R&D Systems catalog # AF1168 conjugated with Perkin Elmer acceptor beads catalog # 6772001 + 2B3 antibody from IBL catalog # 11088 biotinylated), and sAPPβ (Perkin Elmer AL276-acceptor + IBL catalog # 18957 biotinylated). For the assay, 2 μL of diluted or undiluted sample was added to a 384 well plate, followed by 2 μL of the respective antibody mixture. This was incubated for 1 h. Afterwards, 2 μL of donor beads was added to each well, followed by a 30-min incubation in the dark, after which the signal was read.

The target in the next experiment is eAPP (Homo sapiens, UniProt P05067). In words: APP binding by surface plasmon resonance (SPR).
Chain of eAPP (P05067 18-701): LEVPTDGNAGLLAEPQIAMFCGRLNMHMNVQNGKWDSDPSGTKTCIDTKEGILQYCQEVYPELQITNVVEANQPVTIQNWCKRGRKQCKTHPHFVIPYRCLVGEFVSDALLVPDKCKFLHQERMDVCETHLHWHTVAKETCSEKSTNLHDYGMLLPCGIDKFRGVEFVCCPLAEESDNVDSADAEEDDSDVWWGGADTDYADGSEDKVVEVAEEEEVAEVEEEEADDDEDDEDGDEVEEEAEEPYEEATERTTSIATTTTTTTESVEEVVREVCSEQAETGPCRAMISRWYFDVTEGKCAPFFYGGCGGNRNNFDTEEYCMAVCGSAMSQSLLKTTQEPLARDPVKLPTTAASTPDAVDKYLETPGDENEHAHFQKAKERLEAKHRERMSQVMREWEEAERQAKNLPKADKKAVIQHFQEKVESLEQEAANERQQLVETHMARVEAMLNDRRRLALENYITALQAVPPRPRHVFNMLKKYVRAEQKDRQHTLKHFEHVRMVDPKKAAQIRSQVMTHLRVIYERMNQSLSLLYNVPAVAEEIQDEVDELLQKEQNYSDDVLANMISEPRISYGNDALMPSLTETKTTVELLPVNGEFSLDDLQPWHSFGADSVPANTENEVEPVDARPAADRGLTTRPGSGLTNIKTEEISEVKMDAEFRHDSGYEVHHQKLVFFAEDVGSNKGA
Experiment [2] addresses BACE1 cleavage of MBP-APPC125 substrate (Homo sapiens, UniProt P56817). In words: MBP-APPC125 BACE1 cleavage assay. In kind it is biochemical. The conditions noted are these: in words. The procedure:
(-)/peak 2 enantiomers. […] Specifically, 2 μL of the Acc-Mix was loaded into each well and incubated for 1-hour at RT, then 2 μL of Donor-Mix was added and incubated for 30 min at room RT protected from light. The signal was quantified using an Envision Plate reader (Fig S6). Testing of FA[…](-) in HEK-APP-GFP cells HEK293T cells stably transfected with human APP (P05067-1, […]) tagged with Green Fluorescent Protein (GFP) on the N-terminal (HEK-APP; AcroBiosystems cat# CHEK-ATP081) were cultured according to manufacturer recommendations. […] Cells were then washed with PBS and imaged at 37 °C and 5% CO2 using a BioTek Lionheart FX microscope using brightfield and green fluorescence filters with a 20X objective. Images were then processed with Gen5 software to obtain the total intensity of the GFP channel (469/525) and the mean GFP channel intensity.(Fig S7, S8) Supplementary Figures Figure S1. BACE inhibition dose-response and pharmacokinetics for FAH1 and FAH3. (a) IC50 curves for FAH1, 3, 17 and 65 in the P5-P5' assay described in main manuscript. […] μM, respectively. […] 150 FAH-65 BA C E-IV 100 50 0 50 10 0. 1 [ ] µM Figure S2. FAH65 in the BACE2 assay. […] 6 (1 picture or pasted object on this page, not shown here)

Several values for one entry are separate records, joined by “and”; a condition that tells them apart may be missing. Equal entries are not always repeated.

Chain of BACE1 (P56817 46-501): as the sequence (P56817 46-501) above
Chain of BACE1 cleavage of MBP-APPC125 substrate (P56817 46-501): as above
T2 sequence (P56817 46-501): as above
Method for BACE1 cleavage of NRG1: A cDNA construct encoding a human placental secreted alkaline phosphatase (SEAP)-NRG1 (pAPtag5-NRG1-β1) fusion protein was transfected in human embryonic kidney (HEK293) cells in a 6-well format with or without full-length wild-type BACE1 using Lipofectamine 2000 (Invitrogen) as described previously [27]. After transfection, the medium was replaced with DMEM containing the test compound at 10, 5, 1, 0.1, and 0.01 ​μM as well as 10 ​% heat-inactivated fetal bovine serum (FBS), then incubated for 24 ​h. SEAP activity was measured in the conditioned medium.
Method for BACE1 cleavage of PSGL1: A cDNA construct encoding a human placental secreted alkaline phosphatase (SEAP)-PSGL1 (pAPtag5-PSGL1-β1) fusion protein was transfected in human embryonic kidney (HEK293) cells in a 6-well format with or without full-length wild-type BACE1 using Lipofectamine 2000 (Invitrogen). After 6–8 ​h transfection, the medium was replaced with DMEM containing the test compound at 10, 5, 1, 0.1 and 0.01 ​μM and 10 ​% heat-inactivated fetal bovine serum (FBS), and incubated for 24 ​h. SEAP activity was measured in the conditioned medium.
Method for eAPP: The interaction of FAH3, 17 and 65 were evaluated using the SPR protocol described previously in Descamps et al., [26].
For these pilot experiments eAPP as described in Descamps et al (26) is crosslinked to a the CM5 Biacore chip. FAH3 at various concentration was used in the flow through the chip, and the plasmon resonance signal was determined using a Biacore T100. The raw data uncorrected for contribution of running buffer is fit to equilibrium binding data and corrected for the contribution of the running buffer to
For FAH17 and FAH65-APP binding was determined using SPR to determine competition with BSA that non-specifically binds to the eAPP-Biacore chip.

On to `Cc1cc(C2(c3cccc(F)c3)N=C(N)N(C)C2=O)ccc1OC(F)F` (stereo not drawn) [FAH17], for which the IC50 at BACE1 was ~0.3 µM and 0.3 µM. Moreover, the EC50 at BACE1 cleavage of NRG1 and at BACE1 cleavage of PSGL1 was above 10 µM each time. At cathepsin D (CatD), the “inhibition of cathepsin D activity” value is listed as “Neither analog significantly inhibited”. In experiment [1] (24-h treatment), the sAPPβ production entry is given as “decrease”. Besides, in experiment [1], the Aβ1-42 production entry is given as “decrease”. This compound came in with a Kd on eAPP of around 3.3 µM.

Take `O=C1NC(=O)C(c2ccccc2)(c2ccccc2)N1` [phenytoin, reference compound]: the IC50 at BACE1 was above 200 µM. In addition, the “inhibition of BACE1 cleavage of MBP-APPC125” value in experiment [2] is “weak inhibitor”.
